Results taken from ChEMBL document CHEMBL1201862, “PubChem BioAssay data set” (2004).
Calls of active or inactive are those of the source.

Columns and labels:
[1] = target: T1, X-box-binding protein 1 (Homo sapiens, UniProt P17861); format: functional, Cricetulus griseus;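 further: confirmatory dose-response counter-screen serving a CHOP assay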
T1 sequence (P17861 whole entry): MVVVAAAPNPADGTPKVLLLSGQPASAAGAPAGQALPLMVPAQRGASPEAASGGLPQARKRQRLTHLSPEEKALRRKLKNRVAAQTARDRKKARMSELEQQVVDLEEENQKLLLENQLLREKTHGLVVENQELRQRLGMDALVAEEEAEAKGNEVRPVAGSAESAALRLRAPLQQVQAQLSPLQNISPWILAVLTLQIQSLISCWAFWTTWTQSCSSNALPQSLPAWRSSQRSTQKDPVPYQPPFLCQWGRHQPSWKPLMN

[2] = target: Eukaryotic translation initiation factor 4E (Mus musculus, UniProt P63073); assay: eIF4E–eIF4G protein interaction inhibitors, dose response, biochemical, TR-FRET (AID 855); format: functional;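 further: potency for disrupting eIF4E binding to eIF4GI seen as loss of FRET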
[3] = target: Induced myeloid leukemia cell differentiation protein Mcl-1 (Homo sapiens, UniProt Q07820); format: functional
[4] = target: T2, Estrogen receptor (Homo sapiens, UniProt P03372);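 further: potency for inhibiting coactivator peptide recruitment to the receptor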
T2 sequence (P03372 whole entry): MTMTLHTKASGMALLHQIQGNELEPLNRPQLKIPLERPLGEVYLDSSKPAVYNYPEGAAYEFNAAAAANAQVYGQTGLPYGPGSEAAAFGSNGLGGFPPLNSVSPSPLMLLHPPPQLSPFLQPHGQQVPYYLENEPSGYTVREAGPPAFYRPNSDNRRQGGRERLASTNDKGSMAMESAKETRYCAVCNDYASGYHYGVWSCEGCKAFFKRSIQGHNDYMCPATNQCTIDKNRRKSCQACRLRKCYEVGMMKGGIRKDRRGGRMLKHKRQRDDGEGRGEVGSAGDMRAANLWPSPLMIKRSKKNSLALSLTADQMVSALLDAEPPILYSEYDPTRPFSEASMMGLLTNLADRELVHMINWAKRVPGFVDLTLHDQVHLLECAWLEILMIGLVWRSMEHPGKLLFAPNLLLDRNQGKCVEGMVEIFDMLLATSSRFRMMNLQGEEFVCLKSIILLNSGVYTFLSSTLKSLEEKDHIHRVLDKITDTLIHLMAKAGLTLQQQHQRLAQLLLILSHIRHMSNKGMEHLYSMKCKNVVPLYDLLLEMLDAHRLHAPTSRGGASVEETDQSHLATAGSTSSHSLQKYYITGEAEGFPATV

[5] = system: HeLa; assay: HeLa cell cytotoxicity, dose response, cytotoxicity control, 24 h, cherry-picked samples (AID 504726); format: functional, cell-based; conditions: Homo sapiens;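 further: potency for cytotoxicity as loss of luminescence signal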
[6] = HepG2 cell cytotoxicity, dose response, cytotoxicity control for non-replicating M. tuberculosis project (AID 489018); format: functional; conditions: Mycobacterium tuberculosis
[7] = Vero E6 cell cytotoxicity, dose response, cytotoxicity control for non-replicating M. tuberculosis project, secondary assay (AID 492998); format: functional, VeroE6; conditions: Vero C1008
[8] = cells; format: functional
[9] = THP-1 cell cytotoxicity, dose response, cytotoxicity control for non-replicating M. tuberculosis project (AID 489025); format: functional
[10] = HEp-2 cell cytotoxicity, dose response, cytotoxicity control for RSV inhibitor project, HTS (AID 2410); format: functional; conditions: human respiratory syncytial virus
[11] = P. falciparum late gametocyte killing, dose response, luminescence (AID 1117278); format: functional, cell-based;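 further: gametocytes exposed to compound for 24 hours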
[12] = Jurkat T cell cytotoxicity, dose response, cytotoxicity control for P. falciparum gametocyte viability project, luminescence (AID 1117277); format: functional, cell-based;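 further: potency reflects loss of cellular ATP meaning fewer viable cells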
[13] = inhibitors of Vif binding to APOBEC3G peptide, primary screen, biochemical, TR-FRET, GST-Vif 1-94, biotin-A3G peptide, dose response retest (AID 1117319); format: functional;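 further: TR-FRET signal of purified GST-Vif binding a biotinylated A3G peptide; inhibitors lower the FRET signal by blocking Vif and A3G binding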
[14] = system: HEK293; assay: inhibitors of LMP1-driven NF-kB reporter, dose response, cell-based, HEK293, luciferase, cherry-pick (AID 588343); format: functional; conditions: Homo sapiens
[15] = THP-1 cell cytotoxicity, dose response, cytotoxicity control for Vif-APOBEC3G degradation inhibitor project, THP-1 cells (AID 1117359); format: functional; conditions: Human immunodeficiency virus 1, THP-1
[16] = target: T3, Protein Tat (Human immunodeficiency virus type 1 group M subtype B (isolate HXB2)(HIV-1), UniProt P04608); format: functional;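 further: tat binding to TAR RNA read out by fluorescence polarization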
T3 sequence (P04608 whole entry): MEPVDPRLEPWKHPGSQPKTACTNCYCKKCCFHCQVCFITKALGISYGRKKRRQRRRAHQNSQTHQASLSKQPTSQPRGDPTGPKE

[17] = target: Endoplasmic reticulum aminopeptidase 1 (Homo sapiens, UniProt Q9NZ08); assay: ERAP1 aminopeptidase inhibitors, dose response, biochemical, cherry-pick, set 2, plate reader (AID 743314)
[18] = target: T4, Cytochrome P450 1A2 (Homo sapiens, UniProt P05177);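 further: PubChem cytochrome P450 panel assay, CYP1A2 panel member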
T4 sequence (P05177 whole entry): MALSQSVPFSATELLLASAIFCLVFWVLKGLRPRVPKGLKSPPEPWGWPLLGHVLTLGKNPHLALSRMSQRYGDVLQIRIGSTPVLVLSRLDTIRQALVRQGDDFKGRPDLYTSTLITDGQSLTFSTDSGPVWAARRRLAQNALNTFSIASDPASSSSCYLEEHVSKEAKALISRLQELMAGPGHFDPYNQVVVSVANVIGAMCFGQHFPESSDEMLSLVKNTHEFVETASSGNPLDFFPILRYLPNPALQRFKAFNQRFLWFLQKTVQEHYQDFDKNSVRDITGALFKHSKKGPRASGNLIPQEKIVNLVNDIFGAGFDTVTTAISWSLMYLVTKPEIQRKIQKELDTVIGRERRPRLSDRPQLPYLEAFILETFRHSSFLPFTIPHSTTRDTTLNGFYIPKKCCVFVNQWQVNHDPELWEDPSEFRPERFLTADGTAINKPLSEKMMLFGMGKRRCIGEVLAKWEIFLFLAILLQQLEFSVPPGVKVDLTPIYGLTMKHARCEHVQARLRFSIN

[19] = target: T5, Leucine aminopeptidase (Plasmodium falciparum 3D7, UniProt Q8IL11); assay: P. falciparum M17LAP inhibitors, primary screen, biochemical, fluorogenic H-Leu-NHMec substrate, 1536-well (AID 1619); format: functional
T5 sequence (Q8IL11 whole entry): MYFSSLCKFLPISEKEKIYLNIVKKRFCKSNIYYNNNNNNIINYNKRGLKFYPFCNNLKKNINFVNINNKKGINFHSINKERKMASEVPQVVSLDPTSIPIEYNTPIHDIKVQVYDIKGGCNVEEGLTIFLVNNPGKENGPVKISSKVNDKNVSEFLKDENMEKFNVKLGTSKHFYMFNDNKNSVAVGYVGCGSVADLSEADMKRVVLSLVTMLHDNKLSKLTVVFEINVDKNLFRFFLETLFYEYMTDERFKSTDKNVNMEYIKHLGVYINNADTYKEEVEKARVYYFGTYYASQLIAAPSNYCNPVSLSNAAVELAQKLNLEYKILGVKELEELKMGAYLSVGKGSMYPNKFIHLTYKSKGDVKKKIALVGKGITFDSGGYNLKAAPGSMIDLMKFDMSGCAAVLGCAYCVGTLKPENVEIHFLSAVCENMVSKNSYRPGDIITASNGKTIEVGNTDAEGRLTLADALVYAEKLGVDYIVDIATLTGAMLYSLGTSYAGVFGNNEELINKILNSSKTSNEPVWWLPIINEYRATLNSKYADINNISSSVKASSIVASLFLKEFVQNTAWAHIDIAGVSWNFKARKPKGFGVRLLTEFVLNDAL

[20] = target: Cytochrome P450 2C9 (Homo sapiens, UniProt P11712)
[21] = target: Cytochrome P450 3A4 (Homo sapiens, UniProt P08684);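 further: CYP3A4 tested as one member of a cytochrome P450 panel screen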
[22] = target: DNA damage-inducible transcript 3 protein (Mus musculus, UniProt P35639); format: functional, Cricetulus griseus
[23] = target: T6, Heat shock factor protein 1 (Mus musculus, UniProt P38532); assay: inhibition of MG132-induced HSE-luciferase signal, confirmation, cell-based, NIH3T3, luminescence, dose retest (AID 2382); format: functional;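 further: NIH3T3 fibroblasts with HSF1-driven luciferase reporter stressed by proteasome inhibitor MG132; luminescence from HSF1-driven luciferase expression after 8 hours of MG132 stress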
T6 sequence (P38532 whole entry): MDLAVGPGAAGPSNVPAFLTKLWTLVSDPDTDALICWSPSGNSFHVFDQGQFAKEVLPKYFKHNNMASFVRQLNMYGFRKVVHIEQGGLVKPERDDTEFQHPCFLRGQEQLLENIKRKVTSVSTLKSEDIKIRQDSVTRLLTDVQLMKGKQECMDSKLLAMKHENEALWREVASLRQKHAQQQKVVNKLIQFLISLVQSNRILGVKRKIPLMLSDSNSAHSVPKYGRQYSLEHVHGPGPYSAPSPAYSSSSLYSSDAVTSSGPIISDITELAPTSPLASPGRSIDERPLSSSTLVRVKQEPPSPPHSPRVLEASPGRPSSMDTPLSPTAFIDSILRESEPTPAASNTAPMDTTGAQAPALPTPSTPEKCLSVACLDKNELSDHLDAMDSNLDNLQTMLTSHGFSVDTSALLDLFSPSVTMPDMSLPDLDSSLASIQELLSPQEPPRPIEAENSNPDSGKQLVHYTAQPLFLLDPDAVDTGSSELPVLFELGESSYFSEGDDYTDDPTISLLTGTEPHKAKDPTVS

Sequence of Eukaryotic translation initiation factor 4E (P63073 whole entry): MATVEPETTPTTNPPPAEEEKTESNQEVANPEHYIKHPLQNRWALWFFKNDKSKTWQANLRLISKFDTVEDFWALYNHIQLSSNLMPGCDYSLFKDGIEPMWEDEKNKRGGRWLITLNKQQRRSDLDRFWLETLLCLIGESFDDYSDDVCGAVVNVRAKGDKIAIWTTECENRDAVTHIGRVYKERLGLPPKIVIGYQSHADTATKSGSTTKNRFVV
Sequence of Endoplasmic reticulum aminopeptidase 1 (Q9NZ08 whole entry): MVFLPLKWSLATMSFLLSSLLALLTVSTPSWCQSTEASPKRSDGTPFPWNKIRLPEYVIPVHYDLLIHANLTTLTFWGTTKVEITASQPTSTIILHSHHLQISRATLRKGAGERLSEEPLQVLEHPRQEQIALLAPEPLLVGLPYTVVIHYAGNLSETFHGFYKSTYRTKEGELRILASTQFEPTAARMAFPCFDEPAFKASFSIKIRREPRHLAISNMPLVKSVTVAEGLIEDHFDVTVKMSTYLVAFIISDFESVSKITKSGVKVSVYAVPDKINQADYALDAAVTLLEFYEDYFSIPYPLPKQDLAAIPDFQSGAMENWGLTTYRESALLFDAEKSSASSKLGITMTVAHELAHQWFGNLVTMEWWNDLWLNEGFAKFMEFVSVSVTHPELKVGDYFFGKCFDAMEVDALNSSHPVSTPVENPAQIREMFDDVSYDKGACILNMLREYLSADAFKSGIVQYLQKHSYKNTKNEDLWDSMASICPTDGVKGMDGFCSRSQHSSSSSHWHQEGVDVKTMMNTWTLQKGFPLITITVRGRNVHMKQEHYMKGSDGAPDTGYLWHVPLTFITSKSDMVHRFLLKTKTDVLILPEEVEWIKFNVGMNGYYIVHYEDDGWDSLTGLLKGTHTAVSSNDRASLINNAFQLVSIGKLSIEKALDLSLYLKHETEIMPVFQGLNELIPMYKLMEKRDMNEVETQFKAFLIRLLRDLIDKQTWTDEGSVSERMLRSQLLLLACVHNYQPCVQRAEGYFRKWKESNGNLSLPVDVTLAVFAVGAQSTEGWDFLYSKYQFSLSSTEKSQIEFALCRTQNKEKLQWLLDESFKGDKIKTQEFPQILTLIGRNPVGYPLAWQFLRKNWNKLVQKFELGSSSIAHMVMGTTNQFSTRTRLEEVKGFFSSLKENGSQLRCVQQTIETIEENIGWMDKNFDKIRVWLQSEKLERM
Sequence of DNA damage-inducible transcript 3 protein (P35639 whole entry): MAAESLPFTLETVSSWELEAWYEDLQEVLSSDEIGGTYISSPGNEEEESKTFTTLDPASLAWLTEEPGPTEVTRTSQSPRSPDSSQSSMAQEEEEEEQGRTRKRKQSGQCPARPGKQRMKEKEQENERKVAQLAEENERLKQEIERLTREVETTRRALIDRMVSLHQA
Sequence of Cytochrome P450 2C9 (P11712 whole entry): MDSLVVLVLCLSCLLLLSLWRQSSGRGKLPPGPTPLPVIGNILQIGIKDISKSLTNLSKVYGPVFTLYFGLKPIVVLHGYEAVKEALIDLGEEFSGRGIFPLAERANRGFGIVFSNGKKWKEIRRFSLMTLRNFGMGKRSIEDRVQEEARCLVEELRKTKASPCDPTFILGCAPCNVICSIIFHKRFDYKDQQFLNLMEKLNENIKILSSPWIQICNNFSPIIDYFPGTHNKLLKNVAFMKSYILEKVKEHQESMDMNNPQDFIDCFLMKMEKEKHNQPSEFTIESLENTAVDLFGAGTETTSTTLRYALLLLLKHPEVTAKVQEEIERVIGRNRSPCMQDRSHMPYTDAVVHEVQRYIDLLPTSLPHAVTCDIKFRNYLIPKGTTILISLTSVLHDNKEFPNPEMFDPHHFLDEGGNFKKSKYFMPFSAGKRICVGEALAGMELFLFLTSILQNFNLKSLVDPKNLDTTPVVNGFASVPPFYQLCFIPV
Sequence of Induced myeloid leukemia cell differentiation protein Mcl-1 (Q07820 whole entry): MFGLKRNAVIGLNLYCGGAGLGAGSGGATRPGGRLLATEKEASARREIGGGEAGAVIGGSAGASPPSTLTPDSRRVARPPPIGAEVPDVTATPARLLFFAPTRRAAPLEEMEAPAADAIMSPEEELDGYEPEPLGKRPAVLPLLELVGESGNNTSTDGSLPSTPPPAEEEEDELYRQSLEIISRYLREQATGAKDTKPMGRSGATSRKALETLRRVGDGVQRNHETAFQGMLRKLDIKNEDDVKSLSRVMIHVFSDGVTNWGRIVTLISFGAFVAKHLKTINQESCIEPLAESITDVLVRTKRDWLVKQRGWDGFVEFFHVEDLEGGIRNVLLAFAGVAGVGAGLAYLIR
Sequence of Cytochrome P450 3A4 (P08684 whole entry): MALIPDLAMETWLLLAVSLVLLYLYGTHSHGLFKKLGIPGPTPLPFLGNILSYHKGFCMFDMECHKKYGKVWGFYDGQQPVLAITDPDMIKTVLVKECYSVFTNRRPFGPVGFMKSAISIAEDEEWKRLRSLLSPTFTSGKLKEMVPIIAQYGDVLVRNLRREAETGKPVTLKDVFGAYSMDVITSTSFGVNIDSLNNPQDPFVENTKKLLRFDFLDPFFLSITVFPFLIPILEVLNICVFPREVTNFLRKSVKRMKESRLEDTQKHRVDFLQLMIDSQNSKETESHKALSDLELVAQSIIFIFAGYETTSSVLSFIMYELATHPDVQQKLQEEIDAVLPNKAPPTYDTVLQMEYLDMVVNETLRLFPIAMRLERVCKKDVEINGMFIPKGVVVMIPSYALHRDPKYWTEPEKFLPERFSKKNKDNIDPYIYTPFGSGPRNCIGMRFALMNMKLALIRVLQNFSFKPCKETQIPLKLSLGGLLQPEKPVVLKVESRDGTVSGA

In the case of CC(C)=CCc1c(O)c(CC=C(C)C)c2c(c1O)C(=O)CC(c1ccc(O)cc1)O2 (stereo unspecified), the “Absolute IC50 (XBP1)” value [1] is reported as 10 µM.

In the case of CC1CCN(C(=S)c2ccccc2O)CC1, the IC50 [2] is reported as > 64 µM (inactive).

For Cc1ccc(/C=c2\sc3nc(-c4ccco4)nn3c2=O)o1, the IC50 [3] was 4.61 µM (active) and the IC50 [4] was 13.9 µM (active).

In the case of Cc1ccc(OCC(=O)O/N=C(\N)Cc2ccc([N+](=O)[O-])cc2)cc1C, the AC50 [5] is reported as > 350 µM (inactive).

For O=C(Nc1nnc(C2CC2)o1)c1ccc(S(=O)(=O)N2CCCCC2)cc1, the CC50 [6] was > 20 µM (active), the CC50 [7] was 11.5 µM (active) and the IC50 [8] was 10.3 µM (active). The CC50 [9] was > 40 µM (active).

With CC(C)CCNCC(O)CON=C1c2ccccc2-c2ccccc21 (stereo unspecified) the CC50 [6] was 14.4 µM (active), the CC50 [10] was 12.6 µM (active) and the IC50 [8] was 16.8 µM (active). For the same molecule, the CC50 [9] was 13.8 µM (active).

In the case of COCCn1cnc2c1c(=O)n(CC(=O)Nc1cc(C)on1)c(=O)n2Cc1ccccc1, the IC50 [11] is reported as > 109 µM (inactive) and the IC50 [12] is reported as > 83.3 µM (inactive).

With COc1ccc(CN2C(=O)c3ccccc3C2C(=O)NCc2cccnc2)c(OC)c1 (stereo unspecified) the IC50 [13] was > 100 µM (active).

For COc1ccc(N(CC(=O)NCc2ccccc2C)S(=O)(=O)c2ccc(C)cc2)cc1OC, the IC50 [13] was > 100 µM (active).

For O=C(Nc1ccc2c(c1)nc1n2CCSC1)c1ccco1, the AC50 [14] was 3.52 µM (active) and the IC50 [4] was 14.5 µM (active).

For Cc1cc(S(=O)(=O)NC2CCN(Cc3ccccc3)CC2)c(C)cc1Cl, the AC50 [5] was 52.3 µM (active).

In the case of Cc1ccc(S(=O)(=O)N2CCN(C(=O)CCC(=O)NCCc3ccc(F)cc3)CC2)cc1, the IC50 [11] is reported as > 109 µM (inactive) and the IC50 [12] is reported as > 83.3 µM (inactive).

In the case of S=C(Nc1ccc2c(c1)OCCO2)Nc1ccc2c(c1)OCO2, the IC50 [13] is reported as > 100 µM (active), the CC50 [15] is reported as > 40 µM (active) and the IC50 [16] is reported as > 100 µM (active).

In the case of CCCc1cc(=O)oc2c(CN3CCN(C)CC3)c(O)ccc12, the AC50 [17] is reported as 7.87 µM (active).

With COCCCNC(=O)c1cccn2c(=O)c3cc4ccccc4cc3nc12 the IC50 [16] was > 100 µM (active).

With O=C(O)c1ccccc1-c1ccccc1C(=O)Nc1ccc2c(c1)[nH]c(=O)c1ccccc12 the AC50 [18] was 0.00316 µM (inconclusive), the IC50 [19] was 38.8 µM (active) and the AC50 [20] was 3.16 µM (inconclusive). For the same molecule, the AC50 [21] was 3.98 µM (inconclusive).

For CCCn1nc(C(=O)OCC(=O)c2ccc3c(c2)NC(=O)CO3)c2ccccc2c1=O, the IC50 [4] was 37.9 µM (not active).

For CCOc1ccc(S(=O)(=O)N2CCCC2)cc1, the IC50 [11] was > 109 µM (inactive) and the IC50 [12] was > 83.3 µM (inactive).

With Cc1cc(=O)oc2cc(NS(=O)(=O)c3ccc(F)cc3)ccc12 the AC50 [17] was 8.8 µM (active).

In the case of CCOc1cc(C2c3c(C)n[nH]c3C(=O)N2c2ccc(C)cc2)ccc1O (stereo unspecified), the IC50 [2] is reported as > 64 µM (inactive).

In the case of Cc1c(N)cc(S(=O)(=O)O)cc1NC(=O)c1cccc([N+](=O)[O-])c1, the AC50 [5] is reported as 56.4 µM (active).

In the case of Cc1ccc(OCc2ccc(C(=O)O)o2)c([N+](=O)[O-])c1, the IC50 [19] is reported as 31.8 µM (active).

In the case of Cc1ccc(NCC(=O)N/N=C/c2cccc(Oc3ccccc3)c2)cc1, the “Absolute IC50 (CHOP)” value [22] is reported as 10 µM and the “Absolute IC50 (XBP1)” value [1] is reported as less than 10 µM.

With COc1cccc(OCCNc2ccc([N+](=O)[O-])cn2)c1 the AC50 [5] was 49.3 µM (active).

For O=C(COC(=O)Cc1c(Cl)cccc1Cl)Nc1ccc(OC(F)(F)F)cc1, the EC50 [23] was > 195 µM (not active) and the “Absolute IC50 (XBP1)” value [1] was 10 µM.

For Cc1cc(NC(=O)CSc2nc3cc4c(cc3c(=O)n2CCc2ccccc2)OCO4)no1, the “Absolute IC50 (CHOP)” value [22] was 10 µM and the “Absolute IC50 (XBP1)” value [1] was 10 µM.

For CCCn1c(O)nnc1SCC(=O)c1cc(C)ccc1C, the IC50 [13] was > 100 µM (active).
